Data as given in patent US20040025201A1, “True breeding transgenics from plants heterozygous for transgene insertions” (New Zealand Institute for Crop & Food Research Lim, priority 1995, published 2004).

How the values were obtained:
Type in all cases: in vivo
[1] = test system: Brassica napus (30b) mutant; assay: Experiment 1: segregation of chlorsulfuron resistance in selfed progeny of sprayed heterozygous plants
Text: A homozygous line of a Brassica napus (30b) mutant, with a single gene conferring sulfonylurea resistance (Conner et al., Proceedings of the 47th New Zealand Plant Protection Conference, 173-177 (1994)), was used in this study. Brassica napus are self-fertile, with about 80% of the seed normally arising from self-pollination, although a greater degree of cross-pollination may occur when insect pollinators are abundant (Downey et al., Rapeseed and Mustard, Chapter 35:495-509, In Hybridization of Crop Plants, supra). B. napus is commonly referred to as canola, rape and oilseed rape.
The 30b mutant line was hybridized to a herbicide-sensitive genotype to generate a seed population heterozygous for sulfonylurea resistance. These heterozygous seeds were sown, repotted into individual pots in a greenhouse, and individuals were randomly divided into 3 populations:
(ii) plants sprayed once with chlorsulfuron (a sulfonylurea herbicide) at a rate of 3 mg/liter until runoff, just as the plants were beginning to bolt (development of flowering stems) (19 plants).
(iii) plants sprayed with chlorsulfuron at a rate of 3 mg./liter until runoff, just as the plants were beginning to bolt, and then every 2 weeks until initiation of plant senescence (18 plants).
(§1) The heterozygous plants were allowed to self pollinate and resulting seeds harvested at maturity. This next generation was screened for chlorsulfuron resistance as previously described (Conner et al. (1994). Briefly, this involved surface sterilizing the seeds (10-12 minutes in 1% sodium hypochlorite, plus a drop of Tween 20), followed by 2-3 rinses in sterile water, then sowing the seeds in vitro onto the surface of a medium consisting of half strength MS salts at pH 5.8 (Murashige and Skoog Physiologia Plantarum 15:473-497 (1962)) supplemented with 10 ug/liter chlorsulfuron and 6.5 g/liter agar. Seeds were then germinated at 24-26° C. under cool white fluorescent lights (80-100) umol/m2/sec; 16 h light: 8 h darkness daily).
(§2) Seeds generally germinated after 3-4 days and were scored for chlorsulfuron resistance 5-7 days after sowing. Resistant seedlings had long healthy roots (4-6 cm) that penetrated into the gelled medium, with healthy green cotyledons.

[2] = test system: Brassica napus mutant (19c); assay: Experiment 2: segregation of chlorsulfuron resistance in selfed progeny of sprayed heterozygous plants
Protocol: as §1, §2
A further chlorsulfuron-resistant Brassica napus mutant (19c), of independent origin to mutant 30b (Conner et al., Proceedings of the 47th New Zealand Plant Protection Conference, 173-177 (1994)) was subjected to identical experiments described above for mutant 30b.

[3] = test system: Transgenic forage brassica plants (Brassica napus cv. Giant), line G/HR10; assay: Experiment 3: segregation of GUS activity in selfed progeny of sprayed transgenic forage brassica; conditions: sprayed once prior to bolting, 20 g/ha
Text: Plant line used: G/HR10 (Christey and Sinclair, Plant Science: 87 161-169 (1992)). This line contains a single insertion of the T-DNA from pKIWI110 and expresses transgenes conferring kanamycin resistance, β-glucuronidase (GUS) activity, and chlorsulfuron resistance.
Plants of the original transgenic line were cloned in vitro, then transferred to a containment greenhouse. […] The plants were allowed to self-pollinate and the seeds were harvested five months after spraying. The progeny germinated and histochemically screened for GUS activity.

[4] = test system: Transgenic potato plants (Solanum tuberosum cv. Iwa), line SCI1; assay: Experiment 4: segregation of GUS activity in selfed progeny of sprayed transgenic potato; conditions: sprayed once three weeks after planting, 20 g/ha
Text: The Solanum tuberosum, subspecies tuberosum, plant line used: SCI1 (Conner et al., Journal of Cellular Biochemistry 13D: 333 (1989)). This line of potato is transformed with the T-DNA from pKIWI100 and expresses transgenes conferring kanamycin resistance, β-glucuronidase (GUS) activity, and chlorsulfuron resistance. The cultivated varieties of potato grown in the United States and Europe are predominantly tetraploid (i.e., four complete sets of chromosomes) (Plaisted, R. L., Potato, Chapter 34:483-494, In Hybridization of Crop Plants, supra; Allard, pg. 6, supra.
Plants of the original transgenic line were vegetatively propagated via tubers which were planted in a containment greenhouse. Soon after sprouting (three weeks after planting) the plants were sprayed once with either water of chlorsulfuron at the equivalent rate of 20 g/ha Plants were self pollinated at flowering and berries harvested 15 weeks after spraying. Seeds were extracted and germinated, and the progeny histochemically screened for GUS activity.

[5] = test system: Brassica napus plants heterozygous for the chlorsulfuron-resistant mutation (wt×30b); assay: Experiment 5 part (a): self-pollinated seed of heterozygous plants sprayed at varying times
Protocol: as §1, §2
(§3) To further explore the underlying reasons accounting for the induced skewed segregation, additional crosses using the 30b mutant were performed. At specified times the plants were sprayed with chlorsulfuron and the progeny evaluated as described in Experiment 1 above.
Part (a). Plants heterozygous for the chlorsulfuron-resistant mutation (wt×30b) were either not sprayed, or sprayed with chlorsulfuron at varying times during development. The self-pollinated seed was harvested, and the germinated seedlings were screened for chlorsulfuron resistance.

[6] = test system: Brassica napus plants heterozygous for the chlorsulfuron-resistant mutation (wt×30b); assay: Experiment 5 part (b): back-crossed progeny ((wt×30b)×wt) of sprayed ovule parent
Protocol: as §1, §2, §3
Part (b). Plants heterozygous for the chlorsulfuron-resistant mutation (wt×30b) were either not sprayed, or sprayed with chlorsulfuron at varying times during development. The back crossed-progeny ((wt×30b)×wt), resulting from pollen from non-sprayed wildtype plants were screened for chlorsulfuron resistance as described in Experiment 1.

[7] = test system: Brassica napus plants heterozygous for the chlorsulfuron-resistant mutation (wt×30b); assay: Experiment 5 part (c): back-crossed progeny (wt×(wt×30b)) of sprayed pollen parent; conditions: pollen parent sprayed just prior to bolting
Protocol: as §1, §2, §3
Part (c). Plants heterozygous for the chlorsulfuron-resistant mutation (wt×30b) were either not sprayed, or sprayed with chlorsulfuron just prior to bolting. The pollen from these plants was back-crossed to non-sprayed wildtype plants, and the resulting progeny (wt×(wt×30b)) were screened for chlorsulfuron resistance as described in Experiment 1.

[8] = test system: Brassica napus plants heterozygous for the chlorsulfuron-resistant mutation (wt×30b); assay: Experiment 5 part (d): back-crossed progeny ((wt×30b)×30b) of sprayed female parent; conditions: heterozygous female parent sprayed just prior to bolting
Protocol: as §1, §2, §3
Part (d). Plants heterozygous for the chlorsulfuron-resistant mutation (wt×30b) were either not sprayed, or sprayed with chlorsulfuron just prior to bolting. […]

[9] = total of 18 plants repeatedly sprayed
[10] = total of 19 plants sprayed once
[11] = sprayed 2 weeks after pods full size
[12] = sprayed at pods reaching full size
[13] = sprayed at seedlings (2-3 leaves)

SMILES: COc1nc(C)nc(NC(=O)NS(=O)(=O)c2ccccc2Cl)n1 [chlorsulfuron]
- Resistance of progeny of sprayed heterozygous plants (in words) ([1]; both spray regimes): virtually all the progeny obtained were resistant to chlorsulfuron
- Number of herbicide-resistant progeny, Total [1, 9]: 728
- Number of herbicide-sensitive progeny, Total [1, 9]: 2
- Number of herbicide-resistant progeny, Total [1, 10]: 1588
- Number of herbicide-sensitive progeny, Total [1, 10]: 17
- Number of herbicide-resistant seedlings ([2]; repeated fortnightly sprays from bolting): 96
- Number of herbicide-resistant seedlings ([2]; sprayed just prior to bolting): 398
- Number of herbicide-sensitive seedlings ([2]; sprayed just prior to bolting): 31
- GUS-negative progeny ([3]; Population A): 13
- GUS-positive progeny ([3]; Population A): 78
- GUS-negative progeny ([3]; Population B): 16
- GUS-positive progeny ([3]; Population B): 96
- GUS-negative progeny [4]: 12
- GUS-positive progeny [4]: 136
- Number of herbicide-resistant seedlings [5, 11]: 184
- Number of herbicide-sensitive seedlings [5, 11]: 26
- Number of seeds per pod [5, 11]: 6.2
- Number of herbicide-resistant seedlings [5, 12]: 160
- Number of herbicide-sensitive seedlings [5, 12]: 16
- Number of seeds per pod [5, 12]: 5.8
- Number of herbicide-resistant seedlings [5, 13]: 440
- Number of herbicide-sensitive seedlings [5, 13]: 11
- Number of seeds per pod [5, 13]: 5.6
- Number of herbicide-resistant seedlings ([5]; sprayed just prior to bolting): 565
- Number of herbicide-sensitive seedlings ([5]; sprayed just prior to bolting): 5
- Number of seeds per pod ([5]; sprayed just prior to bolting): 5.4
- Number of herbicide-resistant seedlings [6, 11]: 104
- Number of herbicide-sensitive seedlings [6, 11]: 37
- Number of seeds per pod [6, 11]: 4.3
- Number of herbicide-resistant seedlings [6, 12]: 127
- Number of herbicide-sensitive seedlings [6, 12]: 28
- Number of seeds per pod [6, 12]: 4.0
- Number of herbicide-resistant seedlings ([6]; sprayed just prior to bolting): 134
- Number of herbicide-sensitive seedlings ([6]; sprayed just prior to bolting): 5
- Number of seeds per pod ([6]; sprayed just prior to bolting): 3.4
- Number of herbicide-resistant seedlings [7]: 381
- Number of herbicide-sensitive seedlings [7]: 112
- Number of seeds per pod [7]: 6.3
- Number herbicide-sensitive seedlings [8]: 0
- Number of herbicide-resistant seedlings [8]: 111
